Reference: patent publication US20230232863A1, “FEED COMPOSITION FOR TENEBRIO MOLITOR” (priority 2022, published 2023)

What was measured:
Tenebrio molitor [1] = assay: Mealworm larvae feeding: survival rate; type: in vivo; settings: alloferon peptide of 1 ppm
Experimental: The feeding gelatin was made with combining 200 g of distilled water and 4 g of paper gelatin (Gelita H G, Eberbach, Germany), and solidified in the refrigerator using an ice cubic stick tray with the lid closed. The same process was performed for the experimental group of gelatin containing alloferon peptide (Biomatik, Del., USA) of 1 ppm. The tray had 10 slots to make each gelatin of approximately 20 g gelatin cubic and kept in the refrigerator with the lids closed to minimize loss of moisture.
Yellow mealworms (Tenebrio molitor) were provided by a private local insect breeder (Mealworm village, Seoul, Korea). Mealworms larvae were divided into three different dietary groups: (1) About 500 larvae were placed in a plastic container (18.5×12×5.5 cm) with 30 g wheat bran only (control group), (2) About 500 larvae with wheat bran supplemented with 20 g gelatin three times per week (positive control group), (3) About 500 larvae with wheat bran supplemented with 20 g gelatin containing alloferon peptide of 1 ppm three times per week (experimental group). […]
Mealworms pupae and dead larvae were counted and removed daily from each experimental group, and the numbers were recorded for the evaluation of survival rate. The average weight of the mealworm larvae was recorded every week with 20 randomly selected mealworms.

Tenebrio molitor [2] = assay: Mealworm larvae feeding: development time (larvae-pupae transformation); type: in vivo; settings: days until 50% of larvae changed into pupae; laboratory scale; alloferon 1 ppm
Experimental: The feeding gelatin was made with combining 200 g of distilled water and 4 g of paper gelatin (Gelita H G, Eberbach, Germany), and solidified in the refrigerator using an ice cubic stick tray with the lid closed. The same process was performed for the experimental group of gelatin containing alloferon peptide (Biomatik, Del., USA) of 1 ppm. The tray had 10 slots to make each gelatin of approximately 20 g gelatin cubic and kept in the refrigerator with the lids closed to minimize loss of moisture. Yellow mealworms (Tenebrio molitor) were provided by a private local insect breeder (Mealworm village, Seoul, Korea). Mealworms larvae were divided into three different dietary groups: (1) About 500 larvae were placed in a plastic container (18.5×12×5.5 cm) with 30 g wheat bran only (control group), (2) About 500 larvae with wheat bran supplemented with 20 g gelatin three times per week (positive control group), (3) About 500 larvae with wheat bran supplemented with 20 g gelatin containing alloferon peptide of 1 ppm three times per week (experimental group). Two replicated containers per each dietary group were set up, after which the containers were placed in a climate chamber at 25° C. with a relative humidity of 60%. Development time of mealworms was considered to be the number of days until 50% of mealworms larvae changed into pupae stage.

Sf9 insect cells = assay: In vitro cell proliferation analysis by PrestoBlue assay; type: cell-based; settings: 300 nM alloferon; measured at 0, 2, 4 and 6 days
Experimental: The proliferation of Sf9 insect cells was analyzed by the PrestoBlue assay (Invitrogen, CA, USA). 8,000 cells/well were prepared in 96 well plates (Sigma-Aldrich, MI, USA). After cells were seeded, the cells were incubated with PBS with alloferon (300 nM). The control group received PBS without aloferon. At 0, 2, 4, and 6 days after applying 10% PrestoBlue, the color switchover of resazurin to resorufin (Absorbance 570 nm/600 nm) was measured with the microplate reader (BioTeck, Vt., USA).

Phenoloxidase = Phenoloxidase activity analysis in homogenized larvae tissue; type: in vivo, Tenebrio molitor; settings: after alloferon diet
Experimental: For various analysis of biologic response, harvested mealworms larvae were killed by freezing and then all mealworms stored at −20° C. Penoloxidase activity in homogenized larvae tissue was analyzed with a 96 well microplate reader using catechol as the substrate. After the sample was incubated for 37° C. for 10 min, the 420 nm absorbance was measured with a microplate spectrophotometer (Bio-Rad, CA, USA). The essay was performed with three replicates and each experiment was repeated three times. The penoloxidase activity was expressed as units of enzyme activity per mg protein.

Substance: H-His-Gly-Val-Ser-Gly-His-Gly-Gln-His-Gly-Val-His-Gly-OH (H-HGVSGHGQHGVHG-OH) [alloferon, immunomodulatory peptide (Biomatik) first isolated from hemolymph of Calliphora vicina maggots]
- increase of survival rate (Tenebrio molitor [1]): over 61.8%
- development time shortened compared to wheat bran diet control (Tenebrio molitor [2]): 40.3%
- cell proliferation of Sf9 cells (Sf9 insect cells): significantly boosted cell proliferation of Sf9 cells only after 6 days
- phenoloxidase expression/activity in mealworm tissue (Phenoloxidase): increasing the expression of penoloxidase
